These results are taken from ChEMBL document CHEMBL5212743, “Selectivity Literature for EUbOPEN Chemogenomics Library wave 3” (2023).

Assay [1] concerns the target Muscarinic acetylcholine receptor M3 (Homo sapiens) (UniProt P20309). The assay can be described thus: Selectivity interaction (GPCR panel (PDSP screen)) EUB0000546a CHRM3. As to conditions: at 10 µM.
In assay [2] the target is T1, Gamma-aminobutyric acid receptor subunit alpha-1 (Homo sapiens) (UniProt P14867).
T1 sequence (whole entry): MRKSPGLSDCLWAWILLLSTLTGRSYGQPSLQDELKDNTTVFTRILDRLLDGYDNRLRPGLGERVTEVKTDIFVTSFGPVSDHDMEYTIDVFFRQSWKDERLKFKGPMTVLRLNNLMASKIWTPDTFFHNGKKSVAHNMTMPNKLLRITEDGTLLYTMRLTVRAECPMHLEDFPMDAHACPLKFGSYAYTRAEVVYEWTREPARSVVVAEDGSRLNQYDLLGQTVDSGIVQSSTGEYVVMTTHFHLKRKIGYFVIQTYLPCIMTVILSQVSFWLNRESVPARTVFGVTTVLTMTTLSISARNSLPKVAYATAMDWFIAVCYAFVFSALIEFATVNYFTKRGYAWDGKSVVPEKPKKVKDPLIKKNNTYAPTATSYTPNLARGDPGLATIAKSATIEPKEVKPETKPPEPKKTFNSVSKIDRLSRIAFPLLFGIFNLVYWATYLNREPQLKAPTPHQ
Put plainly: Selectivity interaction (GPCR panel (PDSP screen)) EUB0000546a GABRA1. Conditions: at 10 µM.

Assay [3] deals with Kappa-type opioid receptor (Homo sapiens, UniProt P41145). The assay can be described thus: Selectivity interaction (GPCR panel (PDSP screen)) EUB0000344a OPRK1. Conditions: at 10 µM.
Assay [4] addresses Ribosomal protein S6 kinase beta-1 (Homo sapiens) (UniProt P23443). Put plainly: Selectivity interaction (KinomeScan (DiscoverX)) EUB0000344a RPS6KB1. Conditions: at 1 µM.
For assay [5], the system named is Receptor-type tyrosine-protein kinase FLT3 (Homo sapiens), P36888 [K663Q]. Put plainly: Selectivity interaction (KinomeScan (DiscoverX)) EUB0000344a FLT3. Conditions: at 1 µM.
Assay [6] has the same test system. Put plainly: Selectivity interaction (KinomeScan (DiscoverX)) EUB0000274bCl FLT3. As to conditions: at 1 µM.
Assay [7] deals with Ribosomal protein S6 kinase beta-1 (Homo sapiens) (UniProt P23443). Put plainly: Selectivity interaction (KinomeScan (DiscoverX)) EUB0000274bCl RPS6KB1. Conditions: at 1 µM.
For assay [8], the target named is Dual specificity tyrosine-phosphorylation-regulated kinase 1B (Homo sapiens, UniProt Q9Y463). The assay can be described thus: Selectivity interaction (KinomeScan (DiscoverX)) EUB0000313b DYRK1B. Conditions: at 1 µM.
Assay [9] deals with Dual specificity tyrosine-phosphorylation-regulated kinase 1A (Homo sapiens, UniProt Q13627). Put plainly: Selectivity interaction (KinomeScan (DiscoverX)) EUB0000313b DYRK1A. Conditions: at 1 µM.
The target in assay [10] is T2, Tyrosine-protein kinase JAK3 (Homo sapiens) (UniProt P52333).
T2 sequence (whole entry): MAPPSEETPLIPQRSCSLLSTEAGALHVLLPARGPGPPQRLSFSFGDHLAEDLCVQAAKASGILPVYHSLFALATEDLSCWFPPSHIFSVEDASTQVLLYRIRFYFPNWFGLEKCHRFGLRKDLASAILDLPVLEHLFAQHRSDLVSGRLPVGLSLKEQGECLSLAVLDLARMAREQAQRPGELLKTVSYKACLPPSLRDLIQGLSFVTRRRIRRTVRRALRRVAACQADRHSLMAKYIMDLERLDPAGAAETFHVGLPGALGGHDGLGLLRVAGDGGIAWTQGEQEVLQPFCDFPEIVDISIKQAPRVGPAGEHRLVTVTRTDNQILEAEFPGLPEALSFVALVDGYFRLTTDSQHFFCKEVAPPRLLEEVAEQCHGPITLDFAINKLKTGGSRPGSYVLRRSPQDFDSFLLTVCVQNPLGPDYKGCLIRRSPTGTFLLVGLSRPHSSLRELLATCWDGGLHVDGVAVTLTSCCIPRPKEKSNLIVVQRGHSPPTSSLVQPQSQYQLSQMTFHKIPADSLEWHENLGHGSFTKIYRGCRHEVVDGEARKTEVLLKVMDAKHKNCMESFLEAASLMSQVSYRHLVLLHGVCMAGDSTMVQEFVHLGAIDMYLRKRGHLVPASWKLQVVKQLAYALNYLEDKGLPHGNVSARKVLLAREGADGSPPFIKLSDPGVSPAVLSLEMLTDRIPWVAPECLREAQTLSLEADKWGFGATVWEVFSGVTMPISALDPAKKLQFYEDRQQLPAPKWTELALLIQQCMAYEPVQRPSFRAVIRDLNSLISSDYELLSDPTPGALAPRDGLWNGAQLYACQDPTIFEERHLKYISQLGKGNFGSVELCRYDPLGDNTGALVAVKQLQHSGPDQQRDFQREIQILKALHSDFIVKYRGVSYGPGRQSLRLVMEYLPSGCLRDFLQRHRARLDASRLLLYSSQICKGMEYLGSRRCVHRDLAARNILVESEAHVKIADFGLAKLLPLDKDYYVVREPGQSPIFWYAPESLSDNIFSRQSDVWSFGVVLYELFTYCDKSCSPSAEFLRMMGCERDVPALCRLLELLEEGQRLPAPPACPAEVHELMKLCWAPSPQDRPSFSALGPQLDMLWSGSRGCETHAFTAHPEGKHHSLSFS
The assay can be described thus: Selectivity interaction (KinomeScan (DiscoverX)) EUB0000706a JAK3. Conditions: at 1 µM.

The target of assay [11] is T3, Serine/threonine-protein kinase TAO3 (Homo sapiens) (UniProt Q9H2K8).
T3 sequence (whole entry): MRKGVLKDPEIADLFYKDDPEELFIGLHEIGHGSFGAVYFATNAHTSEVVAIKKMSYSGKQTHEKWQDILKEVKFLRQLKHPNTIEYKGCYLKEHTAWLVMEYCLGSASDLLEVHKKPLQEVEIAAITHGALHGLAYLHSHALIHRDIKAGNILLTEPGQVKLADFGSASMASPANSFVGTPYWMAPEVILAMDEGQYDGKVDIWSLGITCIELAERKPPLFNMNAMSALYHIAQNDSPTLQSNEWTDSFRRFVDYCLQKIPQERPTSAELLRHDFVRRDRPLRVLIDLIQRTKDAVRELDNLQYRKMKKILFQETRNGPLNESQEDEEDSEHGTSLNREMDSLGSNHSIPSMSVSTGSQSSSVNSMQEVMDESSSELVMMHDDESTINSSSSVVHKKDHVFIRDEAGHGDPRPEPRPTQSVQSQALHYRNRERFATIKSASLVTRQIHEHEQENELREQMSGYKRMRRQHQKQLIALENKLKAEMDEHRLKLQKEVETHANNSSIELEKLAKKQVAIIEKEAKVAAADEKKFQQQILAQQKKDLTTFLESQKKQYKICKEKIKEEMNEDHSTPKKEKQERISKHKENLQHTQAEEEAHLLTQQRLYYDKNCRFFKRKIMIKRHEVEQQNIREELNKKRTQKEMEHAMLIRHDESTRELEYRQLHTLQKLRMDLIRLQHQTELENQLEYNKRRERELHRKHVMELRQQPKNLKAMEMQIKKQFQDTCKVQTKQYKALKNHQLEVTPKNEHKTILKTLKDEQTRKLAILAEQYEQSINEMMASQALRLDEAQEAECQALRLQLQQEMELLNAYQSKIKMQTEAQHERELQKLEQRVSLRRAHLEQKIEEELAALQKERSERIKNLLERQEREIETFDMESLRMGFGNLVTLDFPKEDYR
Put plainly: Selectivity interaction (KinomeScan (DiscoverX)) EUB0000706a TAOK3. As to conditions: at 1 µM.

The target in assay [12] is Phosphatidylinositol 4,5-bisphosphate 3-kinase catalytic subunit alpha isoform (Homo sapiens, UniProt P42336). The assay can be described thus: Selectivity interaction (KinomeScan (DiscoverX)) EUB0000706a PIK3CA. Conditions: at 1 µM.
Phosphatidylinositol 4,5-bisphosphate 3-kinase catalytic subunit alpha isoform, sequence (P42336 whole entry, canonical isoform): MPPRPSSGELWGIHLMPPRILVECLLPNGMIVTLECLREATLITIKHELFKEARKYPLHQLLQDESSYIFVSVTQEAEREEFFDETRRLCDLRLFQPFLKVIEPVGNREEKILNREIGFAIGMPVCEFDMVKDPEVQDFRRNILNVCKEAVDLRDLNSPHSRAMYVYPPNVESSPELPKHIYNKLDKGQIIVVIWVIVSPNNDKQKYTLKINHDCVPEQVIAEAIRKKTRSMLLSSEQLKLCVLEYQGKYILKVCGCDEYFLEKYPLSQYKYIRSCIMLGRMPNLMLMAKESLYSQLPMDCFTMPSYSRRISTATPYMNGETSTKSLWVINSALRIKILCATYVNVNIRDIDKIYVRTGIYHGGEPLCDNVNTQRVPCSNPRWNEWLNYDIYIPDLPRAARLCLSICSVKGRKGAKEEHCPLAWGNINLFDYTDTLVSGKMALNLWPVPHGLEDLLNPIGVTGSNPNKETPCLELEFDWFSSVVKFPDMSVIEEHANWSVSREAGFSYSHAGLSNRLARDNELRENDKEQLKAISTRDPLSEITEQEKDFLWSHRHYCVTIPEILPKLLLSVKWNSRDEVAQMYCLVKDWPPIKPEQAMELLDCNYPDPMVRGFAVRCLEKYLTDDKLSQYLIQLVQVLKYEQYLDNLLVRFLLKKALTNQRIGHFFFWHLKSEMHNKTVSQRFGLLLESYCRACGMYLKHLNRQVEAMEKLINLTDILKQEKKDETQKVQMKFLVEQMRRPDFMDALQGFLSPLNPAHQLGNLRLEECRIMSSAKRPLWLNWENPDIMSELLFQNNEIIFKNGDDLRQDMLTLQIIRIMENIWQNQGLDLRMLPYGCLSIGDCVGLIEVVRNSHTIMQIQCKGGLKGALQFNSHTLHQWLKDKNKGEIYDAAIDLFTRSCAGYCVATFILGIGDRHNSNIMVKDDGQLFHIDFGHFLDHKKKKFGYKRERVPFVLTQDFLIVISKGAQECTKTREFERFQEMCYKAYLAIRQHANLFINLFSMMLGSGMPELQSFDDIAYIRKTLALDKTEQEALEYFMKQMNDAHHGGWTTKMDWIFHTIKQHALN

Ribosomal protein S6 kinase beta-1 (Homo sapiens), sequence (P23443 whole entry, looked up): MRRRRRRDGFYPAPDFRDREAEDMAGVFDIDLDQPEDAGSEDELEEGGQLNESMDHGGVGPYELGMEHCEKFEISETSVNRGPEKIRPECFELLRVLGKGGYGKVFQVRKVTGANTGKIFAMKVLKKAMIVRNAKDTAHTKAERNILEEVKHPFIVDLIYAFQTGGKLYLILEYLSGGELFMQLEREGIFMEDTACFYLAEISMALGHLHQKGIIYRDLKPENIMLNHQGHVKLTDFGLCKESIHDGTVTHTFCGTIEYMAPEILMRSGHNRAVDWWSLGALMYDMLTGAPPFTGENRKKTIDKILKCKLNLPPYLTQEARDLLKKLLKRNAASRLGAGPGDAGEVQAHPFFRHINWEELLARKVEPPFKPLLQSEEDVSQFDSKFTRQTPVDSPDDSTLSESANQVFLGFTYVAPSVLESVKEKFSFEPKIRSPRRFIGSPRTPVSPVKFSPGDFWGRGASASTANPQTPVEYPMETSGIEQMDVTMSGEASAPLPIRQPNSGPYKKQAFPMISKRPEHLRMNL
Kappa-type opioid receptor, sequence (P41145 whole entry): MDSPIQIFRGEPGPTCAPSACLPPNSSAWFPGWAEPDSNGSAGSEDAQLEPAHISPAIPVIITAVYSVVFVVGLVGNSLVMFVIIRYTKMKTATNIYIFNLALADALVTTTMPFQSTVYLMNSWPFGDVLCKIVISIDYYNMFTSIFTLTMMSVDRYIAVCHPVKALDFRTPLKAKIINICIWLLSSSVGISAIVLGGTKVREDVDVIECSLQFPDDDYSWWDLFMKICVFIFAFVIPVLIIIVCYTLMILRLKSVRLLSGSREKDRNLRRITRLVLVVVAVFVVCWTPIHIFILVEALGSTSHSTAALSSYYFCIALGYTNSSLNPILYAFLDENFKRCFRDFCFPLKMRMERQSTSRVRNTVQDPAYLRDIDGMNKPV
Dual specificity tyrosine-phosphorylation-regulated kinase 1B, sequence (Q9Y463 whole entry, looked up): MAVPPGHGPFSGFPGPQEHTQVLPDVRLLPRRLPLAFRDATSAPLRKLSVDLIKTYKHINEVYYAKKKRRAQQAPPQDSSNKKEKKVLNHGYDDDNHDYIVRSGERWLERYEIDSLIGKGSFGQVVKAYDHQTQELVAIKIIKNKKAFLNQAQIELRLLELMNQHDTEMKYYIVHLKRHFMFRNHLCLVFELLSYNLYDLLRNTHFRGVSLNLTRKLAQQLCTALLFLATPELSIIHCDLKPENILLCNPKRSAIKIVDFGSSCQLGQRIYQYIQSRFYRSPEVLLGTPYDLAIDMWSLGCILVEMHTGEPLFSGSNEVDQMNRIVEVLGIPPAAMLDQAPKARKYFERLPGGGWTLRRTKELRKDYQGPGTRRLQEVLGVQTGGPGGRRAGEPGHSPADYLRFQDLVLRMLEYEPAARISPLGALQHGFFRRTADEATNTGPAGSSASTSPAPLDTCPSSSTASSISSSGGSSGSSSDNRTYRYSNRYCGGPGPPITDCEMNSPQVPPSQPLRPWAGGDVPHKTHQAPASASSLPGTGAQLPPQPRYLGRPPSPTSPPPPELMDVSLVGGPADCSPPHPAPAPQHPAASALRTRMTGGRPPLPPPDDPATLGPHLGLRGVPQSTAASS
Muscarinic acetylcholine receptor M3 (Homo sapiens), sequence (P20309 whole entry, looked up): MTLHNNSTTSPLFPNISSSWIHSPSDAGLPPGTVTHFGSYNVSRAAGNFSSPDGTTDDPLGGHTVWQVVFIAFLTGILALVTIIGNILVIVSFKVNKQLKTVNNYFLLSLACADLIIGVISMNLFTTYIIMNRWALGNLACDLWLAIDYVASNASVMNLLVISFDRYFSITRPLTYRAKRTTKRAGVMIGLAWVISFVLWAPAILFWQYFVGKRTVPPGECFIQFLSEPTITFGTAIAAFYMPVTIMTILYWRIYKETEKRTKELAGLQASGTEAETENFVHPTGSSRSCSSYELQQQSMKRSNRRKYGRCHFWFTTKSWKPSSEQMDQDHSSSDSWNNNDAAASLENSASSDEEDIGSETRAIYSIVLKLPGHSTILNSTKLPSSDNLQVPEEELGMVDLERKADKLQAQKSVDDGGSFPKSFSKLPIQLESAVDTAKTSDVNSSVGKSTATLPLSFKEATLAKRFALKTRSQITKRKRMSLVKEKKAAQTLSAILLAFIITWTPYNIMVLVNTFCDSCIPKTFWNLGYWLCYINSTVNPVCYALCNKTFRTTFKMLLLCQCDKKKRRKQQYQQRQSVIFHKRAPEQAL

Regarding `C[C@H](c1ccc(F)cc1)N(Cc1ccc(Cl)c(C(=O)O)c1)C(=O)c1cnc2ccccc2c1`, the figures for the % of inhibition in assay [1] and in assay [2] were 39% and 28%, respectively.
With `N#CC1(c2ccccn2)CCN(Cc2cc(C(=O)N3CCCC3)c(=O)n3ccccc23)CC1`, in assay [3], the % of inhibition amounted to 46.8%. Further, the values for the % of control in assay [4] and in assay [5] were 34% and 30%, respectively.
Turning to `O=C(O)c1cc(-c2ccc(C3CCNCC3)cc2)c2ccc(-c3ccc(C(F)(F)F)cc3)cc2c1`, the % of control turned out to be 30% in assay [6] and 34% in assay [7].
Take `CC(C)(O)c1cncc(-c2nc3ccc(F)cc3n2C2CC2)c1`: the figures for the % of control in assay [8] and in [9] were 44% and 48%, respectively.
For `C[C@@H]1CN(c2cc(-c3nn(C)c4ccc(OC5(C)CC5)cc34)ncn2)C[C@H](C)O1`, the % of control amounted to 12% in assay [10], 35% in [11] and 32% in [12].
